Laboratory results taken from the NIST ThermoML archive (doi:10.1021/je900387e).

Test: xn = mol fraction of the nth substance listed
Conditions: Liquid, Pycnometric method

CCCCBr [1-bromobutane] + O=C=O
Conditions | mass density [kg/m3]
317.9 K, 12010 kPa, x1 = 0.0989 | 916
317.9 K, 12060 kPa, x1 = 0.1495 | 1014
317.9 K, 12520 kPa, x1 = 0.1495 | 1018
317.9 K, 12610 kPa, x1 = 0.0989 | 923
317.9 K, 12970 kPa, x1 = 0.1495 | 1022
317.9 K, 13250 kPa, x1 = 0.0989 | 930
317.9 K, 13430 kPa, x1 = 0.1495 | 1026
317.9 K, 13860 kPa, x1 = 0.1495 | 1029
317.9 K, 13890 kPa, x1 = 0.0989 | 937
317.9 K, 14380 kPa, x1 = 0.1495 | 1033
317.9 K, 14630 kPa, x1 = 0.0989 | 944
317.9 K, 14800 kPa, x1 = 0.1495 | 1036
317.9 K, 14980 kPa, x1 = 0.0989 | 947
317.9 K, 15020 kPa, x1 = 0.1495 | 1038
322.7 K, 8260 kPa, x1 = 0.1495 | 946
322.7 K, 8470 kPa, x1 = 0.1495 | 948
322.7 K, 8500 kPa, x1 = 0.0989 | 818
322.7 K, 8710 kPa, x1 = 0.1495 | 952
322.7 K, 8720 kPa, x1 = 0.0989 | 825
322.7 K, 8810 kPa, x1 = 0.0683 | 731
322.7 K, 8820 kPa, x1 = 0.0245 | 422
322.7 K, 8840 kPa, x1 = 0.0245 | 425
322.7 K, 8860 kPa, x1 = 0.0461 | 629
322.7 K, 8880 kPa, x1 = 0.0245 | 432
322.7 K, 8880 kPa, x1 = 0.0683 | 735
322.7 K, 8900 kPa, x1 = 0.0461 | 632
322.7 K, 8920 kPa, x1 = 0.0245 | 439
322.7 K, 8920 kPa, x1 = 0.0989 | 830
322.7 K, 8920 kPa, x1 = 0.1495 | 954
322.7 K, 8940 kPa, x1 = 0.0461 | 639
322.7 K, 8960 kPa, x1 = 0.0245 | 447
322.7 K, 8970 kPa, x1 = 0.0683 | 740
322.7 K, 8990 kPa, x1 = 0.0461 | 647
322.7 K, 9000 kPa, x1 = 0.0245 | 455
322.7 K, 9060 kPa, x1 = 0.0461 | 655
322.7 K, 9070 kPa, x1 = 0.0245 | 465
322.7 K, 9070 kPa, x1 = 0.0683 | 745
322.7 K, 9110 kPa, x1 = 0.0245 | 473
322.7 K, 9120 kPa, x1 = 0.0461 | 662
322.7 K, 9160 kPa, x1 = 0.0245 | 482
322.7 K, 9160 kPa, x1 = 0.0683 | 750
322.7 K, 9160 kPa, x1 = 0.0989 | 836
322.7 K, 9160 kPa, x1 = 0.1495 | 958
322.7 K, 9190 kPa, x1 = 0.0461 | 671
322.7 K, 9210 kPa, x1 = 0.0245 | 491
322.7 K, 9250 kPa, x1 = 0.0683 | 755
322.7 K, 9260 kPa, x1 = 0.0245 | 500
322.7 K, 9270 kPa, x1 = 0.0461 | 679
322.7 K, 9320 kPa, x1 = 0.0245 | 510
322.7 K, 9360 kPa, x1 = 0.0683 | 759
322.7 K, 9370 kPa, x1 = 0.0245 | 520
322.7 K, 9380 kPa, x1 = 0.0461 | 687
322.7 K, 9380 kPa, x1 = 0.1495 | 961
322.7 K, 9400 kPa, x1 = 0.0989 | 841
322.7 K, 9430 kPa, x1 = 0.0245 | 531
322.7 K, 9480 kPa, x1 = 0.0461 | 696
322.7 K, 9480 kPa, x1 = 0.0683 | 765
322.7 K, 9500 kPa, x1 = 0.0245 | 542
322.7 K, 9570 kPa, x1 = 0.0245 | 553
322.7 K, 9600 kPa, x1 = 0.0683 | 770
322.7 K, 9610 kPa, x1 = 0.0461 | 705
322.7 K, 9650 kPa, x1 = 0.0989 | 847
322.7 K, 9660 kPa, x1 = 0.0245 | 565
322.7 K, 9670 kPa, x1 = 0.1495 | 964
322.7 K, 9730 kPa, x1 = 0.0683 | 775
322.7 K, 9750 kPa, x1 = 0.0245 | 576
322.7 K, 9810 kPa, x1 = 0.0461 | 718
322.7 K, 9850 kPa, x1 = 0.0245 | 590
322.7 K, 9870 kPa, x1 = 0.0683 | 780
322.7 K, 9910 kPa, x1 = 0.1495 | 968
322.7 K, 9930 kPa, x1 = 0.0245 | 599
322.7 K, 9930 kPa, x1 = 0.0989 | 853
322.7 K, 9990 kPa, x1 = 0.0245 | 606
322.7 K, 10000 kPa, x1 = 0.0245 | 608
322.7 K, 10050 kPa, x1 = 0.0683 | 786
322.7 K, 10090 kPa, x1 = 0.0461 | 733
322.7 K, 10160 kPa, x1 = 0.1495 | 971
322.7 K, 10230 kPa, x1 = 0.0683 | 791
322.7 K, 10240 kPa, x1 = 0.0989 | 859
322.7 K, 10420 kPa, x1 = 0.0461 | 748
322.7 K, 10420 kPa, x1 = 0.0683 | 797
322.7 K, 10440 kPa, x1 = 0.1495 | 974
322.7 K, 10550 kPa, x1 = 0.0989 | 870
322.7 K, 10620 kPa, x1 = 0.0683 | 802
322.7 K, 10760 kPa, x1 = 0.1495 | 977
322.7 K, 10820 kPa, x1 = 0.0461 | 764
322.7 K, 10840 kPa, x1 = 0.0683 | 808
322.7 K, 10910 kPa, x1 = 0.0989 | 872
322.7 K, 10980 kPa, x1 = 0.1495 | 980
322.7 K, 11080 kPa, x1 = 0.0683 | 814
322.7 K, 11270 kPa, x1 = 0.0989 | 877
322.7 K, 11290 kPa, x1 = 0.0461 | 779
322.7 K, 11340 kPa, x1 = 0.0683 | 820
322.7 K, 11370 kPa, x1 = 0.1495 | 984
